Laboratory results as given in patent US6683078B2, “Use of sulfonyl aryl or heteroaryl hydroxamic acids and derivatives thereof as aggrecanase inhibitors” (priority 2001, dated 2004).
Structures can show the parent of a compound that is named as a salt. One block for each compound: values may come before it.

What was measured:
Recombinant human MMP-1 = target: T1, Recombinant human MMP-1 (Homo sapiens, UniProt P03956); assay: In vitro MMP inhibition, fluorogenic peptide substrate; assay type: biochemical
T1 construct: made in house; host or cells: transfected HT-1080 cells
T1 sequence (P03956 100-469): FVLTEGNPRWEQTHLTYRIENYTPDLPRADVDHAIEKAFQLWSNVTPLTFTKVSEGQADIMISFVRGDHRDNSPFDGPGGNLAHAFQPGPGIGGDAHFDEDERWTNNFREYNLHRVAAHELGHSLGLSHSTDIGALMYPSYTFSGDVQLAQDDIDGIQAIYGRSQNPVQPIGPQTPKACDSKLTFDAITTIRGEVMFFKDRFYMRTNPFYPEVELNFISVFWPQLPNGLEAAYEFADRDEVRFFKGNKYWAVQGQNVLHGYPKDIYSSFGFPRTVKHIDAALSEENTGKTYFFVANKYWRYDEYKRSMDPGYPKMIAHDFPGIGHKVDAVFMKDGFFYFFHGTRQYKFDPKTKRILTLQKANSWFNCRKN

Recombinant human MMP-2 = target: T2, Recombinant human MMP-2 (Homo sapiens, UniProt P08253); assay: as above; assay type: biochemical
T2 construct: made in house
T2 sequence (P08253 110-660): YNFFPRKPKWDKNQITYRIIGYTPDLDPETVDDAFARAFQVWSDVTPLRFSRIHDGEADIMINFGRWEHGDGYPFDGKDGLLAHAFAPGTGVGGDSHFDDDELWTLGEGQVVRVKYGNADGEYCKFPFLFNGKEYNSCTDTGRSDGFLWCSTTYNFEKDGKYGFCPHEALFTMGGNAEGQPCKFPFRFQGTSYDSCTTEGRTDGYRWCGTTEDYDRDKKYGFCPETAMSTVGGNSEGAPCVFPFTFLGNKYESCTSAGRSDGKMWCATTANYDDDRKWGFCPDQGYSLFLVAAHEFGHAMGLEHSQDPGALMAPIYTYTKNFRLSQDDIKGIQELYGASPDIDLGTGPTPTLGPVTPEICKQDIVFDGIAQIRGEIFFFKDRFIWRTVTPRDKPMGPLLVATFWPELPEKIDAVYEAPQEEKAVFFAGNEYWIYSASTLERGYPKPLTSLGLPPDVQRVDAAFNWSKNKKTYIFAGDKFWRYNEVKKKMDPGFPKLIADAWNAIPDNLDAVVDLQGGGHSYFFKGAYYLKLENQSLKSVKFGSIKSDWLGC

Recombinant human MMP-13 = target: T3, Recombinant human MMP-13 (Homo sapiens, UniProt P45452); assay: as above; assay type: biochemical
T3 construct: made in house; host or cells: baculovirus / insect cells

Recombinant human MMP-8 = target: T4, Recombinant human MMP-8 (Homo sapiens, UniProt P22894); assay: as above; assay type: biochemical; conditions: Table B
T4 construct: made in house

Recombinant human MMP-3 = target: T5, Recombinant human MMP-3 (Homo sapiens, UniProt P08254); assay: as above; assay type: biochemical; conditions: Table B
T5 construct: made in house

Recombinant human MMP-9 = target: T6, Recombinant human MMP-9 (Homo sapiens, UniProt P14780); assay: as above; assay type: biochemical; conditions: Table B
T6 construct: made in house

Recombinant human MMP-14 = target: T7, Recombinant human MMP-14 (Homo sapiens, UniProt P50281); assay: as above; assay type: biochemical; conditions: Table B
T7 construct: made in house

[1] = tested on: solid tumor cancers (colorectal, pancreatic, ovarian, and prostate); conditions: cited from earlier work

T5 sequence (P08254 100-477): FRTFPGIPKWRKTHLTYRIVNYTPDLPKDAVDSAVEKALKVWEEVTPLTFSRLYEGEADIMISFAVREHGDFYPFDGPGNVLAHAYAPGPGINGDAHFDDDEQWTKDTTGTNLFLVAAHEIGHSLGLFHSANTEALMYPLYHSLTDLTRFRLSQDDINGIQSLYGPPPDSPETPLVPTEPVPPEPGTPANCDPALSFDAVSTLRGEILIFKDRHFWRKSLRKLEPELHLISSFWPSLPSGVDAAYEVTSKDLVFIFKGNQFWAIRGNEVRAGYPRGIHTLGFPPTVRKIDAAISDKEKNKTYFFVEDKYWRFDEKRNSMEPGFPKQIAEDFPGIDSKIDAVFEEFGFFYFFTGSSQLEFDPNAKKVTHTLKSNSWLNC
T6 sequence (P14780 107-707 limits assumed): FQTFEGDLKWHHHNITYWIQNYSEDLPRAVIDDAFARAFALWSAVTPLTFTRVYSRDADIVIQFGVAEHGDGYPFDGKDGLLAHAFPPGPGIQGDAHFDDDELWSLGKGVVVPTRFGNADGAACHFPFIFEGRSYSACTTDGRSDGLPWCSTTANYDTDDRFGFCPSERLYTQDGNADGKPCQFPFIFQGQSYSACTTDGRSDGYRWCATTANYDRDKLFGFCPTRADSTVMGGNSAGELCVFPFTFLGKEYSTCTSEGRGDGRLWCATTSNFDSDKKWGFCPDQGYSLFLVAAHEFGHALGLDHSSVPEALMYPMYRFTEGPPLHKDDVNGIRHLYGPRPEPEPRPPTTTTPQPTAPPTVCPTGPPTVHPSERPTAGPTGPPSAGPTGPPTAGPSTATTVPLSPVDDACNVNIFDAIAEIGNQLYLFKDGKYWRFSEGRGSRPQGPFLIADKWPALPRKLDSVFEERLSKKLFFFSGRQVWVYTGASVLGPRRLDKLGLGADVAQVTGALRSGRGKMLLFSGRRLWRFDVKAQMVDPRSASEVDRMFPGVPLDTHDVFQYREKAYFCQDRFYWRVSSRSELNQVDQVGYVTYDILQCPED
T4 sequence (P22894 101-467): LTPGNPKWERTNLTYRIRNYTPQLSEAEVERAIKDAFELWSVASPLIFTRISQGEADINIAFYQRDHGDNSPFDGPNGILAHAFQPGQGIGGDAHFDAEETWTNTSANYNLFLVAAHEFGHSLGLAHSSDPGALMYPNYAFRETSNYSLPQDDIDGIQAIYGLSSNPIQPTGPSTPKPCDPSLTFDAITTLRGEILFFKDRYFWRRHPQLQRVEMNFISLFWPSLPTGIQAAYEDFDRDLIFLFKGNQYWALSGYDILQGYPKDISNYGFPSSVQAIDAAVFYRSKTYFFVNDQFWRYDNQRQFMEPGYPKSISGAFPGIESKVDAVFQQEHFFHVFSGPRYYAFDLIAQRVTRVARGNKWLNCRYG

IC50 (Recombinant human MMP-1; Inhibition Table A): > 10000 nM
SMILES: O=C(NO)c1ccccc1CS(=O)(=O)c1ccc(Oc2ccccc2)cc1 [Example 1, N-hydroxy-2-[[(4-phenoxyphenyl)-sulfonyl]methyl]benzamide]

IC50 (Recombinant human MMP-2; Inhibition Table A): 148 nM
IC50 (Recombinant human MMP-1; Inhibition Table A): > 10000 nM
IC50 (Recombinant human MMP-13; Inhibition Table A): 1000 nM
SMILES: O=C(NO)c1ccccc1S(=O)(=O)N1CCC(Cc2ccccc2)CC1 [Example 3, N-hydroxy-2-[[4-(phenylmethyl)-1-piperidinyl]sulfonyl]benzamide]

IC50 (Recombinant human MMP-2; Inhibition Table A): > 10000 nM
IC50 (Recombinant human MMP-1; Inhibition Table A): > 10000 nM
IC50 (Recombinant human MMP-13; Inhibition Table A): > 10000 nM
SMILES: O=C(NO)c1ccccc1S(=O)(=O)Cc1ccc(-c2ccccc2)cc1 [Example 4, 2-[([1,11-biphenyl]-4-ylmethyl)-sulfonyl]-N-hydroxybenzamide]

IC50 (Recombinant human MMP-1; Inhibition Table A): > 10000 nM
IC50 (Recombinant human MMP-13; Inhibition Table A): > 10000 nM
SMILES: O=C(NO)c1ccccc1NS(=O)(=O)c1ccc(Oc2ccccc2)cc1 [Example 5, N-hydroxy-2-[[(4-phenoxyphenyl)-sulfonyl]amino]benzamide]

IC50 (Recombinant human MMP-1; Inhibition Table A): > 10000 nM
IC50 (Recombinant human MMP-13; Inhibition Table A): > 10000 nM
SMILES: COc1ccc(NS(=O)(=O)c2ccccc2C(=O)NO)cc1 [Example 7, N-hydroxy-2-[(4-methoxyanilino)sulfonyl]benzamide]

IC50 (Recombinant human MMP-1; Inhibition Table A): > 10000 nM
IC50 (Recombinant human MMP-13; Inhibition Table A): > 10000 nM
SMILES: O=C(NO)c1ccccc1S(=O)(=O)NCc1ccccc1 [Example 8, N-hydroxy-2-[(benzylamino)sulfonyl]benzamide]

IC50 (Recombinant human MMP-1; Inhibition Table A): > 10000 nM
SMILES: O=C(NO)c1ccccc1S(=O)(=O)N1CCC(c2ccccc2)CC1 [Example 9, N-Hydroxy-2-[[4-(phenyl)-1-piperidnyl]sulfonyl]benzamide]

IC50 (Recombinant human MMP-1; Inhibition Table A): > 10000 nM
SMILES: CC(O)(C(=O)NO)c1ccccc1S(=O)(=O)N1CCC(c2ccccc2)CC1 (centres unmarked) [Example 10, N,2-dihydroxy-2-methyl-2-[(4-phenyl-1-piperidinyl)sulfonyl]benzeneacetamide]

IC50 (Recombinant human MMP-2; Inhibition Table A): 2300 nM
IC50 (Recombinant human MMP-13; Inhibition Table A): 2200 nM
SMILES: COc1ccc(C(=O)NC2CCN(S(=O)(=O)c3ccccc3C(=O)NO)C2)cc1 (centres unmarked) [Example 11, N-hydroxy-2-[[3-[(4-methoxybenzoyl)amino]-1-pyrrolidinyl]sulfonyl]benzamide]

IC50 (Recombinant human MMP-1; Inhibition Table A): > 10000 nM
IC50 (Recombinant human MMP-13; Inhibition Table A): 33 nM
SMILES: O=C(NO)c1ccccc1S(=O)(=O)N1CCC(Oc2ccc(OC(F)(F)F)cc2)CC1 [Example 12, N-hydroxy-2-[[4-[4-(trifluoromethoxy)phenoxy]-1-piperidinyl]sulfonyl]benzamide]

IC50 (Recombinant human MMP-1; Inhibition Table A): > 10000 nM
SMILES: O=C(NO)c1ccccc1S(=O)(=O)N1CCC(Oc2ccc(C(F)(F)F)cc2)CC1 [Example 13, N-hydroxy-2-[[4-[4-(trifluoromethyl)phenoxy]-1-piperidinyl]sulfonyl]benzamide]

IC50 (Recombinant human MMP-2; Inhibition Table A): 35 nM
IC50 (Recombinant human MMP-1; Inhibition Table A): > 10000 nM
IC50 (Recombinant human MMP-13; Inhibition Table A): 900 nM
SMILES: O=C(NO)c1ccccc1S(=O)(=O)N1CCC(OCc2ccc(C(F)(F)F)cc2)CC1 [Example 14, N-hydroxy-2-[[4-[[4-(trifluoromethyl)phenyl]methoxy]-1-piperidinyl]sulfonyl]benzamide]

IC50 (Recombinant human MMP-2; Inhibition Table A): 3500 nM
IC50 (Recombinant human MMP-1; Inhibition Table A): > 10000 nM
IC50 (Recombinant human MMP-13; Inhibition Table A): 9000 nM
SMILES: O=C(NO)c1ccccc1S(=O)(=O)Nc1ccc(Oc2ccccc2)cc1 [Example 15, N-hydroxy-2-[[(4-phenoxyphenyl)-amino]sulfonyl]benzamide]

IC50 (Recombinant human MMP-1; Inhibition Table A): > 10000 nM
SMILES: COc1ccc(S(=O)(=O)N2CCC(Oc3ccc(C(F)(F)F)cc3)CC2)c(C(=O)NO)c1OC [Example 16, N-hydroxy-2,3-dimethoxy-6-[[4-[4-(trifluoromethyl)phenoxy]-1-piperidinyl)sulfonyl]benzamide]

IC50 (Recombinant human MMP-2; Inhibition Table A): 1800 nM
IC50 (Recombinant human MMP-13; Inhibition Table A): 2000 nM
SMILES: O=C(NO)c1ccccc1S(=O)(=O)N1CCC(Oc2ccc(C(F)(F)F)cc2)C1 (centres unmarked) [Example 17, N-hydroxy-2-[[3-[4-(trifluoromethyl)phenoxy]-1-pyrrolidinyl]sulfonyl]benzamide]

IC50 (Recombinant human MMP-1; Inhibition Table A): > 10000 nM
SMILES: O=C(NO)c1c(F)cccc1S(=O)(=O)N1CCC(Oc2ccc(C(F)(F)F)cc2)CC1 [Example 19]

IC50 (Recombinant human MMP-1; Table B): > 10000 nM
SMILES: COc1ccccc1-c1ccc(OC2CCN(S(=O)(=O)c3ccc(OC)c(OC)c3C(=O)NO)CC2)cc1 [Example 22]

IC50 (Recombinant human MMP-1; Table B): > 10000 nM
SMILES: COCCOc1cccc(S(=O)(=O)N2CCC(Oc3ccc(C(F)(F)F)cc3)CC2)c1C(=O)NO [Example 23, N-hydroxy-2-(2-methoxyethoxy)-6-[[4-[4-(trifluoromethyl)phenoxy]-1-piperidinyl]sulfonyl]benzamide]

IC50 (Recombinant human MMP-8): 107 nM
SMILES: COc1ccc(S(=O)(=O)N2CCC(Sc3ccccc3)CC2)c(C(=O)NO)c1OC [Example 24]

SMILES: CCCCOc1ccc(N2CCN(S(=O)(=O)c3ccc(OC)c(OC)c3C(=O)NO)CC2)cc1F [Example 25, 6-[[4-(butoxy-3-fluorophenyl)-1-piperazinyl]sulfonyl]-N-hydroxy-2,3-dimethoxybenzamide]
IC50 (Recombinant human MMP-2; Table B): 0.4 nM
IC50 (Recombinant human MMP-8): 252 nM
IC50 (Recombinant human MMP-1; Table B): > 10000 nM
IC50 (Recombinant human MMP-13; Table B): 8.5 nM
IC50 (Recombinant human MMP-3): 294 nM
IC50 (Recombinant human MMP-9): 22.1 nM
IC50 (Recombinant human MMP-14): > 10000 nM

IC50 (Recombinant human MMP-2; Table B): 0.4 nM
IC50 (Recombinant human MMP-8): 7.1 nM
IC50 (Recombinant human MMP-1; Table B): > 10000 nM
IC50 (Recombinant human MMP-13; Table B): 17.9 nM
IC50 (Recombinant human MMP-3): 1460 nM
IC50 (Recombinant human MMP-9): 40.1 nM
IC50 (Recombinant human MMP-14): 416 nM
SMILES: COc1ccc(S(=O)(=O)N2CCN(c3ccc(OC(F)(F)F)cc3)CC2)c(C(=O)NO)c1OC [Example 26]

IC50 (Recombinant human MMP-2; Table B): 3.3 nM
IC50 (Recombinant human MMP-8): 115 nM
IC50 (Recombinant human MMP-1; Table B): > 10000 nM
IC50 (Recombinant human MMP-13; Table B): 2.6 nM
IC50 (Recombinant human MMP-3): 100 nM
IC50 (Recombinant human MMP-9): 370 nM
IC50 (Recombinant human MMP-14): 1700 nM
SMILES: COc1ccc(-c2ccc(OC3CCN(S(=O)(=O)c4ccc(OC)c(OC)c4C(=O)NO)CC3)cc2)cc1OC [Example 27]

IC50 (Recombinant human MMP-1; Table B): > 10000 nM
SMILES: O=C(NO)c1ccccc1S(=O)(=O)N1CCC(Oc2ccccn2)CC1 [Example 44, N-hydroxyl-2-[[4-(2-pyridinyloxy)-1-piperidinyl]sulfonyl]benzamide, monohydrochloride]

IC50 (Recombinant human MMP-2; Table B): 1000 nM
IC50 (Recombinant human MMP-13; Table B): 6700 nM
SMILES: O=C(NO)c1ccccc1S(=O)(=O)N1CCN(C(=O)c2ccccc2)CC1 [Example 53, 2-[(4-benzoyl-1-piperazinyl)sulfonyl]-N-hydroxybenzamide]

SMILES: CNC(=O)[C@@H](NC(=O)[C@H](CC(C)C)[C@H](O)C(=O)NO)C(C)(C)C [Marimastat]
most common drug-related toxicity ([1]; clinical trials): musculoskeletal pain and stiffness
effect on cancer-specific antigens used as surrogate markers for biological activity ([1]; meta analysis of Phase I/II data, patients with advanced, treatment-refractory solid tumors): dose-related reduction in the rise of cancer-specific antigens
